For 14 molecules, IC50 and MIC results are on record in patent US10947205B2, “Oxazolidinone compounds and methods of use thereof as antibacterial agents” (priority 2015, dated 2021).

The subject of assay [1] is mitochondrial protein synthesis in HepG2 cells (COX-I / SDH-A). Nature of the assay: Mitochondrial protein synthesis assay. As to conditions: Homo sapiens, read-out: MPS IC50_μM. Type of assay: cell-based.
Assay [2] deals with Mycobacterium tuberculosis (Mtb). Nature of the assay: microbe, parasite or virus in culture. In kind it is cell-based, Mycobacterium tuberculosis H37Rv (Mtb-GFP). To be noted: 168 h.
The subject of assay [3] is Staphylococcus aureus (methicillin resistant, MB5393, COL). Put plainly: microbe, parasite or virus in culture. Type of assay: cell-based. To be noted: MRSA, 22 h, read-out: MRSA COL MITC95 μM.
Setting [4] is: 96 h, HepG2 cells, 4 days, ratio of COX-1 to SDH-A levels.
Setting [5] is: pH 6.8, read-out: Mtb Cho MITC95_μM.
[6] abbreviates: pH 6.8, read-out: Mtb Glu MITC95_μM.

Structures are written as SMILES. Converted amounts (≈) assume the structure as drawn. Where two headings read alike, the source gives them in different places.

In the case of `CSc1cccc(-c2ccc(N3C[C@H](CN)OC3=O)cc2F)c1` [Example 3, (5S)-5-(aminomethyl)-3-[2-fluoro-3′-(methylsulfanyl)biphenyl-4-yl]-1,3-oxazolidin-2-one], the IC50 in assay [1] (setting [4]) is above 20 µM. Also, the figures for the MIC in assay [2] (setting [5]), in assay [2] (setting [6]) and in assay [3] were 0.78 µM (≈ 0.259 µg/mL), 1.14 µM (≈ 0.379 µg/mL) and 100 µM (≈ 33.2 µg/mL), respectively.

Regarding `NC[C@H]1CN(c2ccc(-c3cccs3)c(F)c2)C(=O)O1` [Example 56, (S)-5-(aminomethyl)-3-(3-fluoro-4-(thiophen-2-yl)phenyl)oxazolidin-2-one], the IC50 in assay [1] (setting [4]) was above 20 µM. The MIC in assay [2] (setting [5]) worked out at 0.39 µM (≈ 0.114 µg/mL); in assay [2] (setting [6]), 0.39 µM (≈ 0.114 µg/mL); in assay [3], 100 µM (≈ 29.2 µg/mL).

`NC[C@H]1CN(c2ccc(-c3ccnc4[nH]ccc34)c(F)c2)C(=O)O1` [Example 31, (5S)-5-(aminomethyl)-3-[3-fluoro-4-(1H-pyrrolo[2,3-b]pyridin-4-yl)phenyl]-1,3-oxazolidin-2-one]: the IC50 in assay [1] (setting [4]) is above 20 µM. Further, the MIC in assay [2] (setting [5]) was 0.78 µM (≈ 0.255 µg/mL); in assay [2] (setting [6]), 0.39 µM (≈ 0.127 µg/mL); in assay [3], 200 µM (≈ 65.3 µg/mL).

Consider `NC[C@H]1CN(c2ccc(-c3ccc(F)nc3)c(F)c2)C(=O)O1` [Example 19, (5S)-5-(aminomethyl)-3-[3-fluoro-4-(6-fluoropyridin-3-yl)phenyl]-1,3-oxazolidin-2-one], for which the IC50 in assay [1] (setting [4]) is above 20 µM. Also, the values for the MIC in assay [2] (setting [5]), in assay [2] (setting [6]) and in assay [3] were 0.09 µM (≈ 0.0275 µg/mL), 0.485 µM (≈ 0.148 µg/mL) and 200 µM (≈ 61.1 µg/mL), respectively.

With `NC[C@H]1CN(c2cnc(N3CCS(=O)(=O)CC3)c(F)c2)C(=O)O1` [Example 48, (S)-5-(aminomethyl)-3-(6-(1,1-dioxidothiomorpholino)-5-fluoropyridin-3-yl)oxazolidin-2-one], the IC50 in assay [1] (setting [4]) was above 100 µM. Also, the MIC in assay [2] (setting [5]) amounted to 0.78 µM (≈ 0.269 µg/mL); in assay [2] (setting [6]), 0.39 µM (≈ 0.134 µg/mL); in assay [3] it was 200 µM (≈ 68.9 µg/mL).

For `NC[C@H]1CN(c2ccc(-c3ccc4ncnn4c3)c(F)c2)C(=O)O1` [Example 5, (5S)-5-(aminomethyl)-3-(3-fluoro-4-[1,2,4]triazolo[1,5-a]pyridin-6-ylphenyl)-1,3-oxazolidin-2-one], the IC50 in assay [1] (setting [4]) is above 20 µM. Further, the MIC in assay [2] (setting [5]) turned out to be 0.09 µM (≈ 0.0295 µg/mL); in assay [2] (setting [6]) it was 0.04 µM (≈ 0.0131 µg/mL); in assay [3], 200 µM (≈ 65.5 µg/mL).

`NCc1ccc(F)c(-c2ccc(N3C[C@H](Cn4ccnn4)OC3=O)cc2F)c1` [Example 55, (5R)-3-[5′-(aminomethyl)-2,2′-difluorobiphenyl-4-yl]-5-(1H-1,2,3-triazol-1-ylmethyl)-1,3-oxazolidin-2-one]: in assay [1] (setting [4]), the IC50 was above 20 µM. Also, the MIC is 0.19 µM (≈ 0.0732 µg/mL) in assay [2] (setting [5]), 0.19 µM (≈ 0.0732 µg/mL) in assay [2] (setting [6]) and 50 µM (≈ 19.3 µg/mL) in assay [3].

With `CSc1ccc(-c2ccc(N3C[C@H](Cn4occc4=O)OC3=O)cc2F)cc1` [Example 50, (R)-2-((3-(2-fluoro-4′-(methylthio)-[1,1′-biphenyl]-4-yl)-2-oxooxazolidin-5-yl)methyl)isoxazol-3(2H)-one], the IC50 in assay [1] (setting [4]) was above 20 µM. Also, the figures for the MIC in assay [2] (setting [5]), in assay [2] (setting [6]) and in assay [3] were 0.58 µM (≈ 0.232 µg/mL), 0.29 µM (≈ 0.116 µg/mL) and 200 µM (≈ 80.1 µg/mL), respectively.

As for `CSc1ccc(-c2ccc(N3C[C@H](CNC(=O)C4CC4)OC3=O)cc2F)cc1` [Example 41, (S)—N-((3-(2-fluoro-4′-(methylthio)-[1,1′-biphenyl]-4-yl)-2-oxooxazolidin-5-yl)methyl)cyclopropanecarboxamide], the IC50 in assay [1] (setting [4]) was 8 µM. For the same molecule, the figures for the MIC in assay [2] (setting [5]), in assay [2] (setting [6]) and in assay [3] were 0.04 µM (≈ 0.016 µg/mL), 0.04 µM (≈ 0.016 µg/mL) and 200 µM (≈ 80.1 µg/mL), respectively.

As to `NC[C@H]1CN(c2ccc(-c3ccccc3)c(F)c2)C(=O)O1` [Example 39, (5S)-5-(aminomethyl)-3-(2-fluorobiphenyl-4-yl)-1,3-oxazolidin-2-one], the IC50 in assay [1] (setting [4]) is above 20 µM. Moreover, the MIC in assay [2] (setting [5]) is 0.78 µM (≈ 0.223 µg/mL); in assay [2] (setting [6]), 0.585 µM (≈ 0.167 µg/mL); in assay [3] it was 200 µM (≈ 57.3 µg/mL).

With `CC(=O)NC[C@H]1CN(c2ccc(N3CCn4ncnc4C3)cc2)C(=O)O1` [Example 42, (S)—N-((3-(4-(5,6-dihydro-[1,2,4]triazolo[1,5-a]pyrazin-7(8H)-yl)phenyl)-2-oxooxazolidin-5-yl)methyl)acetamide], the IC50 in assay [1] (HepG2, 96 h) is above 20 µM. The MIC in assay [2] (setting [5]) came to 1.5 µM (≈ 0.535 µg/mL); in assay [2] (setting [6]), 1.5 µM (≈ 0.535 µg/mL); in assay [3], 200 µM (≈ 71.3 µg/mL).

For `NC[C@H]1CN(c2ccc(-c3ccnc(Cl)c3)c(F)c2)C(=O)O1` [Example 30, (5S)-5-(aminomethyl)-3-[4-(2-chloropyridin-4-yl)-3-fluorophenyl]-1,3-oxazolidin-2-one], the IC50 in assay [1] (setting [4]) was above 20 µM. For the same molecule, the MIC in assay [2] (setting [5]) came to 0.39 µM (≈ 0.125 µg/mL); in assay [2] (setting [6]), 0.09 µM (≈ 0.029 µg/mL); in assay [3], 200 µM (≈ 64.3 µg/mL).

As for `CC(=O)NC[C@H]1CN(c2ccc(N3CCOCC3)c(F)c2)C(=O)O1` [linezolid, reference compound], the IC50 in assay [1] (setting [4]) was 8 µM. Besides, the MIC in assay [2] (setting [5]) came to 3.14 µM (≈ 1.06 µg/mL); in assay [2] (setting [6]) it was 4.58 µM (≈ 1.55 µg/mL); in assay [3], 6.25 µM (≈ 2.11 µg/mL).

Turning to `NC[C@H]1CN(c2ccc(-c3ccc(C(N)=O)cc3)c(F)c2)C(=O)O1` [Example 2, 4′-[(5S)-5-(aminomethyl)-2-oxo-1,3-oxazolidin-3-yl]-2′-fluorobiphenyl-4-carboxamide], the IC50 in assay [1] (setting [4]) was above 25 µM. Moreover, the MIC was determined as 0.03 µM (≈ 0.00988 µg/mL) in assay [2] (setting [5]), 0.02 µM (≈ 0.00659 µg/mL) in assay [2] (setting [6]) and 200 µM (≈ 65.9 µg/mL) in assay [3].
